Reference: patent publication US6787359B1, “Gene transfer methods” (Takara Shuzo Co., Ltd., priority 1998, dated 2004)

Columns and labels:
[1] = system: mouse leukemia L1210 cells; experiment: Gene transfer with PM5neo virus on coated plates, G418-resistant cells by WST-1 absorbance; assay type: cell-based; conditions: for Absorbance difference (450 nm-650 nm), G418-resistant cells: Experiment 2
Procedure: 50 μl of […] solution of H-271, H-296, C-274, CH-271, CH-296, ColV, human basic fibroblast growth factor (bFGF; Progen), tenascin (Gibco) or epidermal growth factor (EGF; Takara Shuzo), or 50 μl of 2% bovine serum albumin (BSA, Sigma) was added to each well of a 96-well non-treated microplate for cell culture (Falcon). The plate was allowed to stand at 4° C. overnight and then washed twice with phosphate buffered saline (PBS; Roman Kogyo). Alternatively, after the plate was treated as described above, 0.1 ml of 4 mg/ml solution of 1-ethyl-3-dimethylaminopropylcarbodiimide hydrochloride (Sigma) in sterile pure water was dispensed to each well. The reaction was allowed to proceed at 37° C. for 2 hours. The plate was washed extensively with pure water to prepare a carbodiimide-treated plate. These plates were stored at 4° C. until viral infection experiments were conducted.
10^4 mouse leukemia L1210 cells (ATCC CCL-219), which had been grown in RPMI 1640 medium (Bio Whittaker) supplemented with 10% FCS, 50 units/ml penicillin and 50 μg/ml streptomycin, and 50 μl of PM5neo virus supernatant (10^4 cfu/ml) were added to the well of the microplate. After the plate was incubated for 24 hours, the medium was changed to the same medium containing G418 (Gibco) at a final concentration of 0.75 mg/ml, and the plate was then incubated for additional 48 hours. G418-resistance cells were assessed according to the method as described in S. Kim et al. [Gene Therapy, 3:1018-1020 (1996)] with a partial modification in which color developed using Premix WST-1 reagent (Takara Shuzo) was measured as absorbance at 450 nm. […] Absorbance at 450 nm and 650 nm was then measured using a microplate reader, and the difference (450 nm-650 nm) was calculated. The value obtained using a plate coated with 2% BSA without carbodiimide treatment was defined as background.

L1210 cells [2] = experiment: Eco-EGFP gene transfer on plates with covalently immobilized CH-271 and (Mannose)9-(GlucNAc)2-Asn; assay type: cell-based, mouse; conditions: wells with sugar chain and CH-271 immobilized
Procedure: A microplate to which CH-271 and (Mannose)9-(GlucNAc)2-Asn were immobilized through covalent bonds was prepared. […] 50 μl each of solutions containing 2% BSA or 80 μg/ml of CH-271 as well as (Mannose)9-(GlucNAc)2-Asn at a varying concentration was added to each well of the activated 96-well Carboplate. The plate was subjected to immobilization reaction at 37° C. for 2 hours. The plate was blocked using 0.2% glycine solution at 4° C. for 15 hours and then used for the following gene transfer experiments.
10^3 L1210 cells and 0.1 ml Eco-EGFP virus supernatant (10^6 cfu/ml) were added to the well of the microplate. After the plate was incubated for 48 hours, 0.1 ml of fresh RPMI 1640 medium containing FCS, penicillin and streptomycin was added to the well. The plate was incubated for additional 24 hours. The cells were collected and washed. The gene transfer efficiency was calculated as described in Example 4.

[3] = system: mouse leukemia L1210 cells; experiment: Effect of sugar chain-cleaving enzymes on CH-271/laminin plates, PM5neo gene transfer, G418-resistant cells; assay type: cell-based
Procedure: A 96-well microplate was coated using 50 μl/well of a mixture containing 5 μg/ml of mouse laminin and 80 μg/ml of CH-271 as described in Example 5. Effects of treatment of the plate with various enzymes having activities of cleaving sugar chains on gene transfer efficiency were examined.
Plates were treated with enzymes as follows: Enzyme solutions containing 500 mU/ml O-glycanase (endo-α-N-acetylgalactosaminidase, Seikagaku Corp.), 500 mU/ml endoglycosidase H (endo-β-N-acetylglucosaminidase H, Seikagaku Corp.), 250 mU/ml endo-β-galactosidase (Seikagaku Corp.) and 2 mU/ml α-mannosidase (Seikagaku Corp.) in 50 mM citrate-phosphate buffer (pH 5.0) were prepared. An enzyme solution containing 250 mU/ml glycopeptidase F (peptide: N-glycosidase F, Takara Shuzo) in 100 mM tris-hydrochloride buffer (pH 8.6) was prepared. 50 μl each of the enzyme solutions was dispensed in each well for reacting at 37° C. for 20 hours. The plate was then washed three times with PBS and then used for viral infection experiments. 10^4 mouse leukemia L1210 cells grown in RPMI 1640 medium supplemented with 10% FCS, 50 units/ml penicillin and […], and 50 μl of PM5neo virus supernatant (10^4 cfu/ml) were added to each well of the microplate. The plate was incubated for 24 hours. […] G418-resistance cells were assessed as described in Example 3.

L1210 cells [4] = experiment: Eco-EGFP gene transfer with laminin and virus-binding substance, flow cytometry; assay type: cell-based, mouse; conditions: no CH-296/CH-271
Procedure: Mouse laminin (Gibco) or human laminin (Takara Shuzo) was used in combination with a functional substance having an activity of binding to a virus to carry out gene transfer experiment. A 24-well non-treated microplate for cell culture (Falcon) used in the experiment was coated with these functional substances according to the following two methods.
The cocktail method: A mixture of two functional substances is added to the plate. The plate is allowed to stand at 4° C. overnight. The plate is blocked with 2% BSA at 37° C. for 20 minutes and then washed with PBS.
The pre-coating method: A solution of a functional substance having an activity of binding to a virus is added to the plate. The plate is allowed to stand at 4° C. overnight. The solution is removed. A laminin solution is added to the plate. The plate is incubated at 37° C. for 2 hours, blocked with 2% BSA, and then washed with PBS.
0.5 ml of the solution of the functional substance was used to coat each well. 10^5 L1210 cells and 0.5 ml of Eco-EGFP virus supernatant (10^5 cfu/ml) were added to the well. The plate was incubated for 24 hours. After incubation, the cells were collected by using a cell detachment buffer (Bio Whittaker) and washed. EGFP-expressing cells were analyzed by flow cytometry using FACSVantage (Becton Dickinson) at an excitation wavelength of 488 nm and an emission wavelength of 515-545 nm. The gene transfer efficiency (the ratio of EGFP-expressing cells to total cells) was calculated.

NIH/3T3 cells = experiment: Titer of virus supernatant of producer cells cultured with sodium butyrate; assay type: cell-based; conditions: φCRIP/pLEIN producer cells cultured 24 hours with 5 mM sodium butyrate; without: 3.3×10^4 cfu/ml
Procedure: The titer of the virus supernatant was measured according to a standard method [J. Virol., 62:1120-1124 (1988)] in which the efficiency of transferring a neomycin phosphotransferase gene into NIH/3T3 cells (ATCC CRL-1658) is used as an index. The number of infectious particles contained in 1 ml of the supernatant (cfu/ml) was calculated. The amount of the virus supernatant to be added in the experiments hereinbelow was determined based on the calculated value, i.e., the titer of the supernatant.
(§1) Recombinant retrovirus-producer cells obtained by introducing a retrovirus vector plasmid pLEIN into φCRIP cells were cultured in DMEM containing 10% CS. When the cells grew to semi-confluence in a 10-cm plate, the medium was changed to 7 ml of RPMI 1640 containing 10% FCS or 7 ml of RPMI 1640 containing 5 mM sodium butyrate (Nacalai Tesque) and 10% FCS. After the cells were cultured for 24 hours, supernatants were filtered through 0.45 μm filters to obtain virus supernatants. The titer of the virus supernatant was determined as described in Example 2. The titer of the virus supernatant without sodium butyrate was 3.3×10^4 cfu/ml, whereas the titer of the virus supernatant containing 5 mM sodium butyrate was 2×10^6 cfu/ml.

HL-60 cells = assay type: cell-based, human; conditions: no washing
Procedure: as §1
HL-60 cells were used as target cells. 0.5 ml of the above-mentioned virus supernatant was added to each well of a plate coated with CH-296 as described in Example 12. The plate was incubated at 37° C. for 3 hours for contacting and binding the virus particles with CH-296. After incubation, the plate was […]. 0.5 ml of RPMI 1640 medium supplemented with 10% FCS containing 5×10^4 HL-60 cells was added to the well. As a control, 5×10^4 HL-60 cells were suspended in 0.5 ml of the above-mentioned virus supernatant and then immediately added to the plate coated with CH-296. These plates were incubated at 37° C. overnight to allow the virus to infect cells. After the incubation, 1 ml of RPMI 1640 medium containing 10% FCS was added to the well. The plate was incubated for additional 48 hours. The cell number was then counted.

[5] = plate treated with carbodiimide
[6] = Control: cells suspended in supernatant with sodium butyrate, added to CH-296 plate

bFGF: human basic fibroblast growth factor (Progen)
Absorbance difference (450 nm-650 nm), G418-resistant cells [1, 5]: 0.580 ± 0.046 | Absorbance difference (450 nm-650 nm), G418-resistant cells ([1]; plate untreated): 0.425 ± 0.014 | Gene transfer efficiency (in words) ([1]; known virus-binding substances, Table 1): increase in gene transfer efficiency was observed

Tenascin: tenascin (Gibco)
Absorbance difference (450 nm-650 nm), G418-resistant cells [1, 5]: 0.323 ± 0.037 | Absorbance difference (450 nm-650 nm), G418-resistant cells ([1]; plate untreated): 0.060 ± 0.021 | Appearance of G418-resistant cells (in words) ([1]; carbodiimide treatment carried out): increased

(Mannose)9-(GlucNAc)2-Asn
Gene transfer efficiency (in words) (L1210 cells [2]): increased depending on the concentration of sugar chain used

laminin
Gene transfer-promoting effect of laminin after enzyme treatment (in words) ([3]; treatment of the plate with endoglycosidase H): completely abolished | Gene transfer efficiency after enzyme treatment (in words) ([3]; treatment of the plate with α-mannosidase or glycopeptidase F): decreased the gene transfer efficiency in some degree | Gene transfer efficiency (L1210 cells [4]; laminin 5 μg/ml alone): 4.09% | Gene transfer efficiency (L1210 cells [4]; laminin 10 μg/ml alone): 6.76% | Gene transfer efficiency (L1210 cells [4]; laminin 20 μg/ml alone): 6.89%

CCCC(=O)[O-].[Na+] [sodium butyrate]
Titer of the virus supernatant (NIH/3T3 cells): 2×10^6 cfu/ml | Cell number (cells/plate) (HL-60 cells; [6]): 4.0 x 10^5 cells/plate | Gene transfer efficiency (%) (HL-60 cells; [6]): 35.46% | Viable cell number relative to supernatant without sodium butyrate (HL-60 cells; control group): one fourth
